As a reminder, the IC50 is the midpoint of a concentration-inhibition curve.

This note sets out measurements from patent publication US5449684A (priority 1993, dated 1995).

Values after ≈ are worked out from the molar mass of the structure shown.

Type in all cases: cell-based
Assay [1] deals with VSV (Vesicular stomatitis virus). The assay is described as follows: microbe, parasite or virus in culture. The conditions noted are these: read-out: IC50 VSV.
Assay [2] relates to human colon carcinoma HT-29. The assay is described as follows: in vitro antitumour activity in cell cultures of human colon carcinoma HT-29. The conditions noted are these: HT-29 cell culture. The protocol:
(§1) The antitumour activities of Mycaperoxide A and Mycaperoxide B have been determined "in vitro" in cell cultures of mouse leukemia P-388, human lung carcinoma A-549 and human colon carcinoma HT-29. The procedure was carried out using the method described by Raymond J. Bergeron et al. Biochem Bioph. Res. Comm. 1984, 121(3), 848-854 and by Alan C Shroeder et al. J. Med. Chem. 1981, 24 1078-1083.

The subject of assay [3] is human lung carcinoma A-549. As to the kind of experiment: in vitro antitumour activity in cell cultures of human lung carcinoma A-549. The conditions noted are these: A549, A-549 cell culture. The protocol:
as §1

Assay [4] relates to mouse leukemia P-388. The assay is described as follows: in vitro antitumour activity in cell cultures of mouse leukemia P-388. To be noted: P388, P-388 cell culture. The protocol: as §1

In the case of `CC(C(=O)O)C1CCC(C)(CCC2(C)C(C)CCC3C(C)(C)CCCC32O)OO1` (centres unmarked) [Mycaperoxide A, mycaperoxide A], the IC50 in assay [1] worked out at 2 µg/mL (≈ 4.87 µM); in assay [2] it was 0.5 µg/mL (≈ 1.22 µM); in assay [3] it was 0.5 µg/mL (≈ 1.22 µM); in assay [4] it was 0.5 µg/mL (≈ 1.22 µM).

`CC(C(=O)O)C1CCC(C)(CCC2(O)C(C)CCC3C(C)(C)CCCC32C)OO1` (centres unmarked) [Mycaperoxide B, mycaperoxide B]: the IC50 in assay [1] turned out to be 4 µg/mL (≈ 9.74 µM); in assay [2], 1 µg/mL (≈ 2.44 µM); in assay [3], 1 µg/mL (≈ 2.44 µM); in assay [4], 1 µg/mL (≈ 2.44 µM).
